Common to all, as to type: cell-based, monkey
The test system of data set [1] is COS7 cells. Description: Protein biosynthesis by incorporation of [3H]Phe. An excerpt:
(§1) Unnatural amino acids frequently are toxic to cells. To find out if this is the case for photo-amino acids of the invention, we monitored in COS7 cells protein biosynthesis by incorporation of [^3H]Phe and viability by trypan blue exclusion of cells grown in the presence or absence of the photo-amino acids photo-Leu, photo-Met and photo-Ile. Due to the lack of two essential amino acids in the growth medium, protein biosynthesis is reduced to about 65% of that in a full growth medium. […] Although cells grew slightly slower than in full growth medium, viability (Table 2) and cell morphology (not shown) were unaffected.

For data set [2], the system named is COS7 cells. Briefly: Cell viability by trypan blue exclusion. Conditions: LM-2 medium supplement; percent ± SD of viable cells (n = 6).
Description: as §1

Data set [3] has as its system COS7 cells. Description: Incorporation of [1-14C]photo-Met and [3H]Phe into newly synthesized protein. The procedure: Cells were washed 6 times with PBS and lysed in 0.5% Triton X-100, 0.2% sodium deoxycholate. Aggregated DNA was removed, protein was precipitated^43, the pellet was redissolved in 0.3 ml 0.5% SDS and subjected to a second round of precipitation. […] The dried pellet was redissolved and processed for scintillation counting (data of Table 1 and FIG. 4b) or processed as follows for amino acid analysis (FIG. 2b): the pellet was dissolved in 600 µl 50 mM NH4HCO3, 0.5% SDS, 3 mM CaCl2 containing 0.25 mg pronase (Roche) followed by incubation at 37° C. for 20 h. The sample was lyophilized, dissolved in 600 μl of 7 N HCl containing 4 mg of glutamic acid and 6 mg of photo-Met and heated to 70° C. for 24 h. A Dowex 50WX8 column (1.6×24 cm) was prepared^18 and equilibrated with 0.1 M sodium citrate pH 3.8. The sample was concentrated to 50 μl in a speed-vak, diluted to 1 ml with 0.1 M sodium citrate pH 3.8, and loaded onto the column. The column was eluted at 24° C. at a flow rate of 20 ml/h with 70 ml 0.1 M sodium citrate pH 3.8, 26 ml 0.1 M sodium citrate pH 4.3 and 100 ml of 0.1 M sodium citrate pH 4.5. Fractions of 3 ml were collected and assayed for absorbance at 350 nm, radioactivity by scintillation counting, and amino groups by the fluorescamine method^44.
To decrease competition for activation by tRNA synthetases, media devoid of the structurally related amino acids Leu and Met (LM-2) or, for some experiments, devoid of Leu, Met, Ile and Val (LM-4) were used. Proteins incorporated radioactivity as shown by autoradiography after separation by SDS-PAGE (FIG. 2a, lane 3). […] 88% of the radioactivity in the labeled proteins was intact [1-^14C]photo-Met (FIG. 2b, photo-Met). A small peak eluting slightly earlier than glutamic acid (FIG. 2 B, Glu) contained 7% of the radioactivity. This peak was also observed if free [1-^14C]photo-Met was heated with HCl under the conditions of the hydrolysis (data not shown) and therefore represents a product of thermal decomposition of the amino acid. Under the conditions employed, radioactivity originating from degradation/re-integration would be expected to appear as aspartate and glutamate (oxidative release of [^14C]CO2, metabolism via pyruvate carboxylase, citric acid cycle and transamination to Gln and Asn that will be hydrolyzed to Glu and Asp by hot HCl). However, no radioactivity was incorporated via this pathway. We conclude that at least 95% of incorporated radioactivity represents intact [1-^14C]photo-Met. To obtain quantitative data on the frequency of incorporation of photo-Met into newly synthesized protein, we performed co-labeling with [1-^14C]photo-Met and [^3H]Phe. […] Two in three hundred amino acids in newly synthesized protein will be photo-Met.

Data set [4] deals with COS7 cells. Description: Cell viability after UV irradiation by trypan blue exclusion.

`CC1(CCC(N)C(=O)O)N=N1` [photo-Met, L-2-amino-5,5′-azi-hexanoic acid] came in with a Protein synthesis in the data set with COS7 cells [1] (LM-2 medium supplement, value in full DMEM medium set to 100, average ± SD of triplicate) of 76.0 ± 6.4. In addition, the “effect on protein biosynthesis” value in the data set with COS7 cells [1] (addition to LM-2 medium) was “increased protein biosynthesis”. Also, the Cell viability in the data set on COS7 cells [2] turned out to be 99.8 ± 0.1%; in the data set on COS7 cells [4] (10 min UV), 99.4 ± 0.3%; with COS7 cells [4] (10 min UV + 1 h chase), 91.9 ± 1.4%; in the data set with COS7 cells [4] (30 min UV) it was 98.7 ± 0.4%; with COS7 cells [4] (30 min UV + 1 h chase) it was 17.4 ± 5.3%. For the same molecule, in the data set with COS7 cells [3], the “frequency of substitution of photo-Met for Met” value is on record as 35%.

Values taken from patent publication US20090211893A1, “Photo-Activatable Amino Acids” (priority 2005, published 2009).
